Measurements as given in patent US20250313563A1, “GLYCOGEN SYNTHASE KINASE 3 INHIBITORS AND USES THEREOF” (The Broad Institute, Inc., priority 2022, published 2025).
Read-outs that look alike come from different tables or passages of the source.

Tests used:
[1] = molecular target: GSK3α (GST-full length GSK3α) (Homo sapiens (Human), UniProt P49840); assay: GSK3α TR-FRET kinase assay; type: biochemical
Description: (§1) TR-FRET Assay: The assay was performed in a white, 384 well, low volume, flat bottom plate (Grenier). After a 30 minute preincubation in assay buffer with the indicated concentration of compound, the kinase activity was initiated by the addition of the substrates. 1 nM GSK3α (GST-full length GSK3α [SignalChem G08-10G]) or 1 nM GSK3b (GST-full length GSK3b: [SignalChem G08-9G]) were then incubated at ambient temperature for 100 minutes in 10 μL of 50 mM Tris, pH 7.5, 20 mM MgCl2, 0.05 mM DTT, 100 μg/mL BSA and 1% DMSO, with 200 nM biotinylated peptide substrate (biotinylated and S645 phosphorylated glycogen synthase 631-650) and either 4 μM ATP (GSK3α, Table 16) or 2 μM ATP (GSK3b, Table 16) or 1 mM ATP (Table 17). The kinase activity was quenched with 2 μL of 250 mM EDTA. A 10 μL volume of 40 nM Strepavidin-d2, 2 nM Tb^2+-pSer641 antibody in TR-FRET Detection Buffer (Invitrogen) was then added. After 60 min at room temperature the plate was read on Envision plate reader using Ex: 340 nm, Em: 615 nm and […]. The normalized 665/615 Signal ratio versus log compound concentration was analyzed by XLFIT to yield IC50 values.

[2] = molecular target: GSK3b (GST-full length GSK3b) (Homo sapiens (Human), UniProt P49841); assay: GSK3b TR-FRET kinase assay; type: biochemical
Description: as §1

[3] = read-out: GSK3-A (TR-FRET 1 mM ATP), GMean, IC50, 1 mM ATP, geometric mean
[4] = read-out: GSK3-B (TR-FRET 1 mM ATP), GMean, IC50, 1 mM ATP, geometric mean
[5] = 1 nM GSK3α, 4 μM ATP, 30 minute preincubation, geometric mean, read-out: GSK3-A TR-FRET BIOCHEMICAL (TR-FRET), GMean, IC50
[6] = 1 nM GSK3b, 2 μM ATP, 30 minute preincubation, geometric mean, read-out: GSK3-B TR-FRET BIOCHEMICAL (TR-FRET), GMean, IC50
[7] = 1 nM GSK3α, 4 μM ATP, 30 minute preincubation, Table 16, read-out: GSK3-A TR-FRET BIOCHEMICAL (TR-FRET)
[8] = 1 nM GSK3b, 2 μM ATP, 30 minute preincubation, Table 16, read-out: GSK3-B TR-FRET BIOCHEMICAL (TR-FRET)

Chain of GSK3b (GST-full length GSK3b) (P49841 whole entry): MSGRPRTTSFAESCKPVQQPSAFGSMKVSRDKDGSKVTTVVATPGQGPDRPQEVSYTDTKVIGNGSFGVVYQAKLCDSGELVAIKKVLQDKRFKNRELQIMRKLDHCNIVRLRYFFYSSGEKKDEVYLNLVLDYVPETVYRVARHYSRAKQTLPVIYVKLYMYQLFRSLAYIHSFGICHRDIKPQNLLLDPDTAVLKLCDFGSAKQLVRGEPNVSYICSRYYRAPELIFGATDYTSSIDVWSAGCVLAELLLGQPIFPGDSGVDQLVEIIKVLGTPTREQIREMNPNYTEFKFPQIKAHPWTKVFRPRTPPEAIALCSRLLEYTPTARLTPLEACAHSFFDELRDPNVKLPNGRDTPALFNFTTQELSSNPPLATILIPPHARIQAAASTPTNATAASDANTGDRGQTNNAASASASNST
Chain of GSK3α (GST-full length GSK3α) (P49840 whole entry): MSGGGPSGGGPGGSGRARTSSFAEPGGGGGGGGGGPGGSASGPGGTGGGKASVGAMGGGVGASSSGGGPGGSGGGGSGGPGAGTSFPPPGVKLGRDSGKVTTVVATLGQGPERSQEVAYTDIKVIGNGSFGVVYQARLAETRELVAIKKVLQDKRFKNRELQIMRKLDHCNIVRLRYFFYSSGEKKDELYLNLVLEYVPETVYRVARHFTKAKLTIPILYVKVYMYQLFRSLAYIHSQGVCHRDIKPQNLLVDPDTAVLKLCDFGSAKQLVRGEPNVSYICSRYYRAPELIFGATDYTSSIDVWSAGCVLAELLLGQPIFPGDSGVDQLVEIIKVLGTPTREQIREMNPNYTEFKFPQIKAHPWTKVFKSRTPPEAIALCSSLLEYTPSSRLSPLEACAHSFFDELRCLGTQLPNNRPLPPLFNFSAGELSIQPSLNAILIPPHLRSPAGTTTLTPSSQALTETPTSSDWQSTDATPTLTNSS

SMILES | IC50 [1, 5] [nM] | IC50 [2, 6] [nM] | also measured
Cn1cncc1-c1cccc([C@@]2(C)C3=C(CC(C)(C)CC3=O)Nc3n[nH]c(CC(C)(C)C)c32)c1 [Compound 126015] |  |  | IC50 [1, 3]: > 5000 nM; IC50 [2, 4]: > 5000 nM
C[S+]([O-])c1cccc(C2(C)C3=C(CC(C)(C)CC3=O)Nc3n[nH]c(CC(C)(C)C)c32)c1 (stereo not drawn) [Compound 126191] |  |  | IC50 [1, 3]: > 5000 nM; IC50 [2, 4]: 100 to 1000 nM
Cn1cc(-c2cccc([C@@]3(C)C4=C(CC(C)(C)CC4=O)Nc4n[nH]c(CC(C)(C)C)c43)c2)cn1 [Compound 126367] |  |  | IC50 [1, 3]: > 5000 nM; IC50 [2, 4]: > 5000 nM
CC(C)(C)Cc1[nH]nc2c1[C@@](C)(c1cccc(S(=O)(=O)C(F)(F)F)c1)C1=C(CC(C)(C)CC1=O)N2 [Compound 126396] |  |  | IC50 [1, 3]: > 5000 nM; IC50 [2, 4]: > 5000 nM
CC1(C)CC(=O)C2=C(C1)Nc1n[nH]c(C3CC(F)(F)C3)c1C21COc2ccccc21 (stereo not drawn) [Compound 127429] |  |  | IC50 [1, 3]: > 5000 nM; IC50 [2, 4]: 1000 to 5000 nM
CCC1(c2ccc(F)cc2)C2=C(CC(C)(C)CC2=O)Nc2n[nH]cc21 (stereo not drawn) [Compound 772965] | 1000 to 5000 | > 5000 | 
CC1(C)CC(=O)C2=C(C1)Nc1n[nH]cc1C2(C)c1cc(F)cc(F)c1 (stereo not drawn) [Compound 785735] | 100 to 1000 | > 5000 | 
Cc1cccc(C2(C)C3=C(CC(C)(C)CC3=O)Nc3n[nH]cc32)c1 (stereo not drawn) [Compound 785736] | ≤ 100 | 100 to 1000 | 
CCC1(c2ccccc2)C2=C(CC3(CCCC3)CC2=O)Nc2n[nH]cc21 (stereo not drawn) [Compound 785737] | ≤ 100 | 100 to 1000 | 
CCC1(c2cccc(C)c2)C2=C(CC(C)(C)CC2=O)Nc2n[nH]cc21 (stereo not drawn) [Compound 785738] | ≤ 100 | 100 to 1000 | 
CCC1(c2ccc(C)cc2)C2=C(CC(C)(C)CC2=O)Nc2n[nH]cc21 (stereo not drawn) [Compound 785739] | 100 to 1000 | > 5000 | 
CCC1(CC)C2=C(CC(C)(C)CC2=O)Nc2n[nH]c(C)c21 [Compound 786061] |  |  | IC50 [1, 7]: 100 to 1000 nM; IC50 [2, 8]: > 1670 nM
CC1(C)CC(=O)C2=C(C1)Nc1n[nH]cc1C2(C)C [Compound 786065] |  |  | IC50 ([1]; 1 nM GSK3α, 4 μM ATP, 30 minute preincubation, Table 16, read-out: GSK3-A TR-FRET BIOCHEMICAL (TR-FRET), IC50): 1000 to 5000 nM; IC50 ([2]; 1 nM GSK3b, 2 μM ATP, 30 minute preincubation, Table 16, read-out: GSK3-B TR-FRET BIOCHEMICAL (TR-FRET), IC50): > 1670 nM
Cc1[nH]nc2c1C1(CCCC1)C1=C(CC(C)(C)CC1=O)N2 [Compound 786072] |  |  | IC50 [1, 7]: ≤ 100 nM; IC50 [2, 8]: ≤ 100 nM
CC[C@@]1(c2ccccc2)C2=C(C[C@H](C)CC2=O)Nc2n[nH]cc21 [Compound 789009] | > 5000 | > 5000 | 
CC[C@@]1(c2ccccc2)C2=C(C[C@@H](C)CC2=O)Nc2n[nH]cc21 [Compound 789010] | 100 to 1000 | 100 to 1000 | 
CC[C@]1(c2ccccc2)C2=C(C[C@H](C)CC2=O)Nc2n[nH]cc21 [Compound 789011] | > 5000 | > 5000 | 
CC[C@]1(c2ccccc2)C2=C(C[C@H](C)CC2=O)Nc2n[nH]cc21 [Compound 789013] | 100 to 1000 | > 5000 | 
CC1(C)CC(=O)C2=C(C1)Nc1n[nH]cc1C2(C)c1cccc(Br)c1 (stereo not drawn) [Compound 789277] | ≤ 100 | 100 to 1000 | 
CCC1(c2cccc(Br)c2)C2=C(CC(C)(C)CC2=O)Nc2n[nH]cc21 (stereo not drawn) [Compound 789312] | ≤ 100 | 100 to 1000 | 
CCC1(c2ccccc2)C2=C(CC3(CC3)CC2=O)Nc2n[nH]cc21 (stereo not drawn) [Compound 789330] | 100 to 1000 | 1000 to 5000 | 
C[C@@H]1CC(=O)C2=C(C1)Nc1n[nH]cc1[C@]2(C)c1ccccc1 [Compound 789331] | > 5000 | > 5000 | 
C[C@H]1CC(=O)C2=C(C1)Nc1n[nH]cc1[C@]2(C)c1ccccc1 [Compound 789332] | 100 to 1000 | 100 to 1000 | 
C[C@@H]1CC(=O)C2=C(C1)Nc1n[nH]cc1[C@@]2(C)c1ccccc1 [Compound 789333] | > 5000 | > 5000 | 

SMILES | IC50 [1, 5] [nM] | IC50 [2, 6] [nM] | also measured
C[C@H]1CC(=O)C2=C(C1)Nc1n[nH]cc1[C@@]2(C)c1ccccc1 [Compound 789334] | 100 to 1000 | 1000 to 5000 | 
CC1(C)CC(=O)C2=C(C1)Nc1n[nH]cc1C2(C)c1cc(Cl)cc(Cl)c1 (stereo not drawn) [Compound 789337] | 100 to 1000 | 1000 to 5000 | 
CC[C@@]1(c2ccc(C)cc2)C2=C(CC(C)(C)CC2=O)Nc2n[nH]cc21 [Compound 789457] | 100 to 1000 | 1000 to 5000 | 
CC[C@]1(c2ccc(C)cc2)C2=C(CC(C)(C)CC2=O)Nc2n[nH]cc21 [Compound 789458] | > 5000 | > 5000 | 
CCC1(c2ccccc2)C2=C(CC(C)(C)CC2=O)Nc2n[nH]c(Br)c21 (stereo not drawn) [Compound 789459] | ≤ 100 | ≤ 100 | 
CC1(c2ccccc2)C2=C(CC3(CCCC3)CC2=O)Nc2n[nH]cc21 (stereo not drawn) [Compound 789460] | 100 to 1000 | 100 to 1000 | 
CC1(C)CC(=O)C2=C(C1)Nc1n[nH]cc1C2(c1ccccc1)c1ccccc1 [Compound 789461] | 1000 to 5000 | > 5000 | 
CCC1(c2ccccc2)C2=C(CCCC2=O)Nc2n[nH]cc21 (stereo not drawn) [Compound 789497] | 1000 to 5000 | > 5000 | 
CC1(C)CC(=O)C2=C(C1)Nc1n[nH]cc1C2(C)c1cccc(-c2ccccc2)c1 (stereo not drawn) [Compound 789513] | 100 to 1000 | 100 to 1000 | 
CCC1(c2cccc(-c3ccccc3)c2)C2=C(CC(C)(C)CC2=O)Nc2n[nH]cc21 (stereo not drawn) [Compound 789514] | 100 to 1000 | 100 to 1000 | 
CCC1(c2cccc(C)c2)C2=C(CC(C)(C)CC2=O)Nc2n[nH]cc21 (stereo not drawn) [Compound 789560] |  | 100 to 1000 | IC50 [1, 3]: 1000 to 5000 nM; IC50 [2, 4]: > 5000 nM
CC[C@]1(c2cccc(C)c2)C2=C(CC(C)(C)CC2=O)Nc2n[nH]cc21 [Compound 789561] | 1000 to 5000 | > 5000 | 
CC[C@@]1(c2ccccc2)C2=C(CC3(CCCC3)CC2=O)Nc2n[nH]cc21 [Compound 789562] | ≤ 100 | 100 to 1000 | 
CC[C@]1(c2ccccc2)C2=C(CC3(CCCC3)CC2=O)Nc2n[nH]cc21 [Compound 789563] | > 5000 | > 5000 | 
CCC1(c2cccc(Cl)c2)C2=C(CC(C)(C)CC2=O)Nc2n[nH]c(Br)c21 (stereo not drawn) [Compound 789564] | ≤ 100 | ≤ 100 | 
CCC1(c2cccc(Cl)c2)C2=C(CC(C)(C)CC2=O)Nc2n[nH]c(C)c21 (stereo not drawn) [Compound 790611] | > 5000 | > 5000 | 
CC[C@@]1(c2ccccc2)C2=C(CC3(CC3)CC2=O)Nc2n[nH]cc21 [Compound 790615] | ≤ 100 | 100 to 1000 | 
CC[C@]1(c2ccccc2)C2=C(CC3(CC3)CC2=O)Nc2n[nH]cc21 [Compound 790616] | > 5000 | > 5000 | 
CCC1(c2cccc(C(F)(F)F)c2)C2=C(CC3(CCCC3)CC2=O)Nc2n[nH]cc21 (stereo not drawn) [Compound 790617] | ≤ 100 | ≤ 100 | 
CCC1(c2ccn(C)n2)C2=C(CC(C)(C)CC2=O)Nc2n[nH]cc21 (stereo not drawn) [Compound 790619] | 1000 to 5000 | > 5000 | 
CC1(C)CC(=O)C2=C(C1)Nc1n[nH]c(C(F)(F)F)c1C21CCCOc2ccccc21 (stereo not drawn) [Compound 790632] | > 5000 | > 5000 | 
CC1(C)CC(=O)C2=C(C1)Nc1n[nH]cc1C21CCCC1 [Compound 790666] |  |  | IC50 [1, 7]: ≤ 100 nM; IC50 [2, 8]: ≤ 100 nM
CC1(C)CC(=O)C2=C(C1)Nc1n[nH]cc1C2(C)c1cccc(-c2ccncc2)c1 (stereo not drawn) [Compound 790730] | ≤ 100 | 100 to 1000 | 
CCC1(c2cccc(Br)c2)C2=C(CC(C)(C)CC2=O)Nc2n[nH]cc21 (stereo not drawn) [Compound 790733] | ≤ 100 | ≤ 100 | IC50 [1, 3]: 100 to 1000 nM; IC50 [2, 4]: 1000 to 5000 nM
